The numbers were not newly measured in US9394312B1, “Ibrutinib prodrugs, pharmaceutical compositions thereof, and methods of use” (priority 2015, dated 2016), which cites them from elsewhere.

For this data set the following is noted: humans, combined with a meal versus fasted.

Take `C=CC(=O)N1CCC[C@@H](n2nc(-c3ccc(Oc4ccccc4)cc3)c3c(N)ncnc32)C1` [ibrutinib]: the “change of absolute bioavailability when combined with a meal” value is “doubled”.
